Data from patent US20100124538A1, “TOPICAL APPLICATION OF FLUOCINOLONE ACETONIDE FOR DEPIGMENTATION OF THE SKIN” (GALDERMA RESEARCH & DEVELOPMENT, priority 2007, published 2010).

What was measured:
tail of SKH:HR2 mice [1] = test: Fontana-Masson-positive surface area in living epidermis of the tail (histology, image analysis); type: in vivo; conditions: 4 weeks
Method: (§1) The depigmenting activity of fluocinolone acetonide and of hydrocortisone was evaluated on the tail of female SKH:HR2 mice that were 6 weeks old at the beginning of the study. The products were applied topically (20 μl of product to the tail), 5 days a week for 4 weeks. Each group contains 5 animals:
A tail skin sample is taken at the end of the study and fixed with formol in order to carry out a histological analysis.
The epidermal surface area taken up by melanin is measured by image analysis on histological sections stained by the Fontana-Masson technique, which makes it possible to reveal the pigments. For each animal, the Fontana-Masson-positive surface area is measured by image analysis on five fields of interfollicular epidermis and weighted with respect to the length of corresponding epidermis in order to avoid any possible bias due to hyperplasia or atrophy of the epidermis. Since the horny layer is partially lost during the treatment of the samples, the measurement is carried out only in the living layers of the epidermis.

tail of SKH:HR2 mice [2] = test: Clinical pigmentation score on the tail of SKH:HR2 mice after topical application; type: in vivo; conditions: for depigmenting activity (clinical pigmentation score): 4 weeks
Method: as §1
Clinical observations: once a week the pigmentation is scored on a scale ranging from 0 (base pigmentation) to −4 (total depigmentation).
The depigmenting activities of three corticosteroids, fluocinolone acetonide, desonide and β-methasone valerate, were evaluated on the tail of female SKH:HR2 mice that were 8 weeks old at the beginning of the study. The products were applied topically (20 μl of product to the tail), 5 days a week for 5 weeks. Each group contains 6 animals.
Clinical observations: once a week, the pigmentation is scored on a scale ranging from 0 (base pigmentation) to −4 (total depigmentation).
The depigmenting activity of fluocinolone acetonide and of desonide was evaluated on the tail of female SKH:HR2 mice that were 8 weeks old at the beginning of the study. The products were applied topically (20 μl of product to the tail), 5 days a week for 4 weeks.

melasma [3] = conditions: cited from earlier work
melasma [4] = conditions: monotherapy; cited from earlier work

C[C@]12CCC(=O)C=C1CC[C@@H]1[C@@H]2[C@@H](O)C[C@@]2(C)[C@H]1CC[C@]2(O)C(=O)CO [hydrocortisone]
change of Fontana-Masson-positive surface area (tail of SKH:HR2 mice [1]; up to the concentration of 0.5% topical): does not significantly modify
depigmenting activity (clinical pigmentation score) (tail of SKH:HR2 mice [2]; Example 1, 0.01% increased to 0.5% topical): only a very weak depigmenting activity

CC1(C)O[C@@H]2C[C@H]3[C@@H]4C[C@H](F)C5=CC(=O)C=C[C@]5(C)[C@@]4(F)[C@@H](O)C[C@]3(C)[C@]2(C(=O)CO)O1 [fluocinolone acetonide]
decrease in the Fontana-Masson-positive surface area in the living layers of the tail epidermis (tail of SKH:HR2 mice [1]; 0.0005% topical): 72%
decrease in the Fontana-Masson-positive surface area in the living layers of the tail epidermis (tail of SKH:HR2 mice [1]; 0.01% topical): 85%
depigmenting activity (clinical pigmentation score) (tail of SKH:HR2 mice [2]; Example 1, 0.0005% topical): remains substantial
depigmentation of the tail (clinical pigmentation score) (tail of SKH:HR2 mice [2]; Example 1, 0.01% topical, 5 days a week, after 4 weeks, compared with hydrocortisone at same concentration): marked depigmentation
depigmentation observed (clinical pigmentation score) (tail of SKH:HR2 mice [2]; Example 2, 0.01% topical, after 5 weeks): virtually total
depigmenting activity compared with other corticosteroids (tail of SKH:HR2 mice [2]; Example 2, equivalent concentration of 0.01%, 5 weeks): greater depigmenting activity than desonide and than β-methasone valerate
depigmenting activity (clinical pigmentation score) (tail of SKH:HR2 mice [2]; Example 3, 0.005% topical): very significant depigmenting activity
depigmenting activity compared with desonide (tail of SKH:HR2 mice [2]; Example 3, equivalent concentration, throughout the study (4 weeks)): remains greater than that of desonide

CCC(=O)O[C@]1(C(=O)CCl)[C@@H](C)C[C@H]2[C@@H]3CCC4=CC(=O)C=C[C@]4(C)[C@@]3(F)[C@@H](O)C[C@@]21C [clobetasol propionate]
cases in which treatment had to be stopped due to local atrophy and telangiectasiae (melasma [3]; 0.05% topical, stopped after 4 weeks): 30%
patients with lightening in whom the melasma reappeared at the same sites (melasma [3]; 2 to 3 weeks after the treatment had been stopped): 57%

CC1=C(/C=C/C(C)=C/C=C/C(C)=C/C(=O)O)C(C)(C)CCC1 [tretinoin]
time necessary to obtain a significant result (melasma [4]): 40 weeks

Oc1ccc(O)cc1 [hydroquinone]
time necessary to obtain a significant result (melasma [4]): 12 weeks
